Read-outs that look alike come from different tables or passages of the source. Square brackets hold non-standard residues; d marks the D form. Peptide text beside a SMILES is read from it. * marks the point of attachment. Dolaproine = CO[C@@H]([C@@H]1CCCN1)[C@@H](C)C(=O)O; Dil = CC[C@H](C)[C@H](NC)[C@@H](CC(=O)O)OC; X1 = C[C@@H](N*)[C@@H](O)c1ccccc1; NMeV = CN[C@H](C(=O)O)C(C)C
Key:
[1] = cited from earlier work
[2] = dissolution / appearance in PBS
Protocol: Paclitaxel and the prepared paclitaxel adiposomes were dissolved in PBS, respectively.

solubility / state in PBS [2]	SMILES	logP [1]	solubility / state in PBS ([2]; in PBS)
–	CC[C@@]1(O)C(=O)OCc2c1cc1n(c2=O)Cc2cc3ccccc3nc2-1 [Camptothecin]	1.9	very low solubility in PBS
very low solubility in PBS	C=CCc1ccc(O)c(-c2ccc(O)c(CC=C)c2)c1 [Honokiol]	–	–
–	CC[C@H](C)[C@@H]([C@@H](CC(=O)N1CCC[C@H]1[C@H](OC)[C@@H](C)C(=O)N[C@H](C)[C@@H](O)c1ccccc1)OC)N(C)C(=O)[C@@H](NC(=O)[C@@H](NC)C(C)C)C(C)C [Monomethyl auristatin E] (H-[NMeV]V[Dil][Dolaproine]-X1)	3.4	very low solubility in PBS
–	CC(=O)O[C@H]1C(=O)[C@@]2(C)[C@H]([C@H](OC(=O)c3ccccc3)[C@]3(O)C[C@H](OC(=O)[C@H](O)[C@@H](NC(=O)c4ccccc4)c4ccccc4)C(C)=C1C3(C)C)[C@]1(OC(C)=O)CO[C@@H]1C[C@@H]2O [Paclitaxel]	–	very low solubility in PBS

From EP4810020A1, “NANOPARTICLE ADIPOSOME ENCAPSULATING HYDROPHOBIC SMALL-MOLECULE DRUG, PREPARATION METHOD THEREFOR, AND USE THEREOF” (WeCareLife Biotech Co., Ltd., priority 2023, dated 2025)
